# Assay results taken from patent US20240002369A1, “NOVEL TREATMENTS OF ATTENTION DEFICIT/HYPERACTIVITY DISORDER” (priority 2020, published 2024).
# “Also recorded” adds a separate entry of the source. Structures can show the parent of a compound that is named as a salt. Marks after values point to notes of the source that are not given here.
# How the values were obtained:
# [1] = test system: scopolamine-induced cognitive dysfunction; experiment: T-maze alternation test, scopolamine-induced cognitive dysfunction model; format: in vivo, Male CD-1 mice
# Text: Male CD-1 mice aged 4-5 weeks were allocated to a T-maze to perform the T-maze alternation test as described by Andriambeloson et al., 2014 (Pharma Res Per, 2 (4), 2014, e00048, included herein by reference). In brief, each mouse was placed in a T-maze consisting of a main stem and two arms. The experiment consisted of one “forced-choice” trial and 14 “free-choice” trials to evaluate the number of spontaneous alternations.
# [2] = Tan et al., Proc Natl Acad Sci USA 2002; cited from earlier work
# Lphn3.1 HOM larvae [3] = experiment: Sleep behavior in freely moving zebrafish larvae during lights-off period; conditions: for comparison of all sleep parameters (summary): 1, 10, 30 μM, FIG. 6A-6D
# Procedure: This assay provides a measure of muscle weakness and/or motor coordination, which co-occurs with certain sleep states, but can also occur independently of sleep. […] Thus, to evaluate the effect of moxonidine on sleep behavior, the sleep behavior in freely moving zebrafish (Lphn3.1 HOM larvae) following treatment with moxonidine, a comparator compound, or negative control (i.e. saline or vehicle control) was assessed in line with the criteria described by Levitas-Djerbi et al., (Curr Opin Neurobiol. 2017; 44:89-93) and Sorribes et al., (Front Neural Circuits. 2013 Nov. 13; 7:178).
# In brief, sleep behavior was recorded in a 96-well plate and analysed during the lights-off period (22:00-08:00). First, all behavior was dichotomized into 1-s bins of movement or non-movement. […] All activity that was slower than that threshold was computed as non-movement. Thus, rendering a dichotomized record of the behavior in either movement or non-movement. Next, the dichotomized record was transformed into bins of sleep and wake. Following previously established sleep criteria in adults, and adapted to larval fish (Yokogawa et al., PLoS Biol. 2007; 5(10):2379-97, Sorribes et al., Front Neural Circuits. 2013; 7:178, and Sigurgeirsson et al., Behav Brain Res. 2013; 256:377-90), six or more consecutive 1-s bins of non-movement were counted as sleep and all else was counted as wake. That is, the seventh second and above were classified as sleep; all other bouts were classified as wake. Once the number of sleep and wake bouts was calculated, five different sleep parameters were assessed (i.e. sleep fragmentation, sleep ratio, velocity during sleep, wake bout duration(s), and sleep bout duration(s)). Sleep fragmentation was defined as the number of transitions between sleep and wake bouts per hour. Sleep ratio was calculated as the percentage of total night time that the fish was considered asleep. Velocity during sleep (mm/s) was defined as the average velocity throughout the night time. Wake bout duration(s) was defined as the average length of wake bouts. Sleep bout duration(s) was defined as the average length of sleep bouts.
# Lphn3.1 WT larvae = experiment: Motor assay in wild-type zebrafish larvae; format: in vivo, zebrafish (Danio rerio)
# Lphn3.1 HOM larvae [4] = experiment: Motor assay in the zebrafish model of ADHD (Lphn3.1 knock-out larvae); format: in vivo, zebrafish (Danio rerio)
# Text: Zebrafish larvae carrying a knock-out of the Latrophilin3 (Lphn3.1) gene were generated by CRISPR-Cas9. Zebrafish were kept in a 14:10 light: dark cycle in 3 or 10 L multi tank constant flow system (Aquatic Habitats, Apopka, FL, USA). For behavioral analysis a total number of 881, 6 days-post fertilization (dpf) embryos carrying a homozygous knock-out of the Lphn3.1 gene were used in the study. Adult zebrafish with a homozygous knock-out of the Lphn3.1 gene and adult zebrafish with a wild-type Lphn3.1 gene were fed three times a day on a variable diet of TetraMin flakes (Tetra Holding GmbH, Melle, Germany) and live Artemia. […]
# Following a 24 hour acclimation period, behavioral recordings were made. Locomotor activity was recorded between […] and 6.00 pm at 6 dpf during alternating light and dark conditions, presented in 30-minute intervals. For this period, average distance moved (mm) by the larvae was calculated as the mean of the total distance swum during five separate 30-minute intervals immediately after transition of light conditions. […]
# Data was obtained using EthoVision XT (Version Nov. 5, 2016, Noldus) and exported to Microsoft Excel for analysis. […] For analysis of Lphn 3.1 larvae treated with moxonidine statistical differences were evaluated using one-way ANOVA with Dunnett two-sided post hoc analysis. […]
# [5] = 1 uM vs HOM - DMSO, average length of sleep bouts
# [6] = 1 uM vs HOM - DMSO, average length of wake bouts
# [7] = 1 uM vs HOM - DMSO, average velocity throughout the night time
# [8] = 1 uM vs HOM - DMSO, share of total night time asleep
# [9] = 1 uM vs HOM - DMSO, transitions between sleep and wake bouts per hour, lights-off 22:00-08:00
# [10] = 10 uM vs HOM - DMSO, average length of sleep bouts
# [11] = 10 uM vs HOM - DMSO, average length of wake bouts
# [12] = 10 uM vs HOM - DMSO, average velocity throughout the night time
# [13] = 10 uM vs HOM - DMSO, share of total night time asleep
# [14] = 10 uM vs HOM - DMSO, transitions between sleep and wake bouts per hour, lights-off 22:00-08:00
# [15] = 30 uM vs HOM - DMSO, average length of sleep bouts
# [16] = 30 uM vs HOM - DMSO, average length of wake bouts
# [17] = 30 uM vs HOM - DMSO, average velocity throughout the night time
# [18] = 30 uM vs HOM - DMSO, share of total night time asleep
# [19] = 30 uM vs HOM - DMSO, transitions between sleep and wake bouts per hour, lights-off 22:00-08:00
# [20] = Lphn3.1 HOM, zebrafish, in vivo, 10 h, 1 uM
# [21] = Lphn3.1 HOM, zebrafish, in vivo, 10 h, 10 uM
# [22] = Lphn3.1 HOM, zebrafish, in vivo, 10 h, 30 uM
SMILES,SleepDuration (sleep bout duration) Mean Difference (I − J) (Lphn3.1 HOM larvae [3]; [5]),WakeDuration (wake bout duration) Mean Difference (I − J) (Lphn3.1 HOM larvae [3]; [6]),Velocity (during sleep) Mean Difference (I − J) (Lphn3.1 HOM larvae [3]; [7]),SleepRatio Mean Difference (I − J) (Lphn3.1 HOM larvae [3]; [8]),SleepFragmentation Mean Difference (I − J) (Lphn3.1 HOM larvae [3]; [9]),SleepDuration (sleep bout duration) Mean Difference (I − J) (Lphn3.1 HOM larvae [3]; [10]),WakeDuration (wake bout duration) Mean Difference (I − J) (Lphn3.1 HOM larvae [3]; [11]),Velocity (during sleep) Mean Difference (I − J) (Lphn3.1 HOM larvae [3]; [12]),SleepRatio Mean Difference (I − J) (Lphn3.1 HOM larvae [3]; [13]),SleepFragmentation Mean Difference (I − J) (Lphn3.1 HOM larvae [3]; [14]),SleepDuration (sleep bout duration) Mean Difference (I − J) (Lphn3.1 HOM larvae [3]; [15]),WakeDuration (wake bout duration) Mean Difference (I − J) (Lphn3.1 HOM larvae [3]; [16]),Velocity (during sleep) Mean Difference (I − J) (Lphn3.1 HOM larvae [3]; [17]),SleepRatio Mean Difference (I − J) (Lphn3.1 HOM larvae [3]; [18]),SleepFragmentation Mean Difference (I − J) (Lphn3.1 HOM larvae [3]; [19]),comparison of all sleep parameters (summary) (Lphn3.1 HOM larvae [3]),velocity in wild-type larvae (Lphn3.1 WT larvae),also measured
"COc1nc(C)nc(Cl)c1NC1=NCCN1 [Moxonidine, moxonidine]",-1.586 s,0.8031 s,−0.02492 mm/s,−0.04916,3.2294,-1.0974 s,-0.00334 s,−.07640* mm/s,−0.02153,5.727,-1.57 s,3.687 s,−.05041* mm/s,−0.06247,−1.7339,only a slight increase in velocity,increase velocity,"spontaneous alternation, dose dependence ([1]; 0.1 mg/kg, 0.3 mg/kg and 1 mg/kg, FIG. 4): dose-dependent increase in spontaneous alternation; spontaneous alternation ([1]; 0.3 mg/kg vs mice exposed to scopolamine, p<0.001): significant increased spontaneous alternation; spontaneous alternation ([1]; 1 mg/kg vs mice exposed to scopolamine, p<0.0001): significant increased spontaneous alternation; sedation in the rotarod assay [2]: less sedation compared to clonidine and brimonidine; behavioral parameters (24 hour velocity spectrogram) (Lphn3.1 WT larvae; 10 μM, FIG. 5): no effect on behavioral parameters; average distance moved over the five lights-on phases (Lphn3.1 HOM larvae [4]; 1 μM, 10 μM or 30 μM vs vehicle control (DMSO), FIG. 3): differed significantly from vehicle control and untreated larvae; also recorded: Statistically significant differences; behavioral deficits (24 hour velocity spectrogram) (Lphn3.1 HOM larvae [4]; 10 μM, Lphn3.1 HOM larvae, FIG. 5): rectifies the behavioral deficits"
"CNCC[C@@H](Oc1ccccc1C)c1ccccc1 [atomoxetine, atomoxetine hydrochloride]",8.266* s,−2.547* s,−.09320* mm/s,.18730*,−23.58*,6.306* s,-1.806 s,−.03944* mm/s,.15382*,−19.14*,9.808* s,−3.112* s,−.10640* mm/s,.22326*,−26.47*,drastically altered all sleep parameters at the majority of doses tested,increase velocity,"spontaneous alternations, rescue of scopolamine effect ([1]; vs scopolamine-exposed mice, p<0.0001, FIG. 4): rescued"
"N=C(N)NC(=O)Cc1c(Cl)cccc1Cl [Guanfacine, guanfacine]",–,–,–,–,–,–,–,–,–,–,–,–,–,–,–,–,–,SleepDuration (sleep bout duration) Mean Difference (I − J) (Lphn3.1 HOM larvae [3]; [20]): 3.64* s; SleepFragmentation Mean Difference (I − J) (Lphn3.1 HOM larvae [3]; [20]): −1.812; SleepRatio Mean Difference (I − J) (Lphn3.1 HOM larvae [3]; [20]): .12336*; Velocity (during sleep) Mean Difference (I − J) (Lphn3.1 HOM larvae [3]; [20]): −.08559* mm/s; WakeDuration (wake bout duration) Mean Difference (I − J) (Lphn3.1 HOM larvae [3]; [20]): −3.163* s; SleepDuration (sleep bout duration) Mean Difference (I − J) (Lphn3.1 HOM larvae [3]; [21]): 1.224 s; SleepFragmentation Mean Difference (I − J) (Lphn3.1 HOM larvae [3]; [21]): 7.4424; SleepRatio Mean Difference (I − J) (Lphn3.1 HOM larvae [3]; [21]): .06927*; Velocity (during sleep) Mean Difference (I − J) (Lphn3.1 HOM larvae [3]; [21]): −.07521* mm/s; WakeDuration (wake bout duration) Mean Difference (I − J) (Lphn3.1 HOM larvae [3]; [21]): −2.542* s; SleepDuration (sleep bout duration) Mean Difference (I − J) (Lphn3.1 HOM larvae [3]; [22]): 2.369* s; SleepFragmentation Mean Difference (I − J) (Lphn3.1 HOM larvae [3]; [22]): 1.559; SleepRatio Mean Difference (I − J) (Lphn3.1 HOM larvae [3]; [22]): .09806*; Velocity (during sleep) Mean Difference (I − J) (Lphn3.1 HOM larvae [3]; [22]): −.08512* mm/s; WakeDuration (wake bout duration) Mean Difference (I − J) (Lphn3.1 HOM larvae [3]; [22]): −2.735* s
"Clc1cccc(Cl)c1N=C1NCCN1 [Clonidine, clonidine]",−4.177* s,2.095* s,.08382* mm/s,−.12630*,11.79*,−4.388* s,2.1* s,.09470* mm/s,−.13226*,12.98*,−6.197* s,8.132* s,.23026* mm/s,−.24115*,−7.699,drastically altered all sleep parameters at the majority of doses tested,–,–
